Among the data in US10584128B2, “Bicyclic dihydropyrimidine-carboxamide derivatives as Rho-Kinase inhibitors” (CHIESI FARMACEUTICI S.p.A., priority 2016, dated 2020) are Ki values, retold here.

Bounds are passed on as bounds.

As a reminder, the Ki is a measure of affinity in units of concentration, obtained from inhibition or displacement.

Assay [1] deals with Rho kinase 1 (Homo sapiens, UniProt Q13464). Nature of the assay: In vitro Rho kinase inhibitory activity assay (ADP-Glo kit, Myelin Basic Protein substrate). Type of assay: biochemical. The note with it: 10 μM ATP, 25° C., read-out: ROCK1 inhibitory activity (Ki, range of activity). The protocol:
(§1) The effectiveness of compounds of the present invention to inhibit Rho kinase activity can be determined in a 10 μl assay containing 40 mM Tris pH7.5, 20 mM MgCl2 0.1 mg/ml BSA, 50 μM DTT and 2.5 μM peptide substrate (Myelin Basic Protein) using an ADP-Glo kit (Promega). Compounds were dissolved in DMSO such that the final concentration of DMSO was 1% in the assay. All reactions/incubations are performed at 25° C. Compound (2 ul) and either Rho kinase 1 or 2 (4 μl) were mixed and incubated for 30 mins. Reactions were initiated by addition of ATP (4 μl) such that the final concentration of ATP in the assay was 10 μM. After a 1 hour incubation 10 μl of ADP-Glo Reagent was added and after a further 45 minute incubation 20 ul of Kinase Detection Buffer was added and the mixture incubated for a further 30 minutes. The luminescent signal was measured on a luminometer. […] Compounds were tested in dose-response format and the inhibition of kinase activity was calculated at each concentration of compound. To determine the IC50 (concentration of compound required to inhibit 50% of the enzyme activity) data were fit to a plot of % inhibition vs Log10 compound concentration using a sigmoidal fit with a variable slope and fixing the maximum to 100% and the minimum to 0%. To determine the Ki values the Cheng-Prusoff equation was utilized (Ki=IC50/(1+[S]/Km).

For assay [2], the target named is Rho kinase 2 (Homo sapiens, UniProt O75116). The description is as above. The format is biochemical. As to conditions: 10 μM ATP, 25° C., read-out: ROCK2 inhibitory activity (Ki, range of activity). The protocol:
as §1

Sequence of Rho kinase 1 (Q13464 whole entry): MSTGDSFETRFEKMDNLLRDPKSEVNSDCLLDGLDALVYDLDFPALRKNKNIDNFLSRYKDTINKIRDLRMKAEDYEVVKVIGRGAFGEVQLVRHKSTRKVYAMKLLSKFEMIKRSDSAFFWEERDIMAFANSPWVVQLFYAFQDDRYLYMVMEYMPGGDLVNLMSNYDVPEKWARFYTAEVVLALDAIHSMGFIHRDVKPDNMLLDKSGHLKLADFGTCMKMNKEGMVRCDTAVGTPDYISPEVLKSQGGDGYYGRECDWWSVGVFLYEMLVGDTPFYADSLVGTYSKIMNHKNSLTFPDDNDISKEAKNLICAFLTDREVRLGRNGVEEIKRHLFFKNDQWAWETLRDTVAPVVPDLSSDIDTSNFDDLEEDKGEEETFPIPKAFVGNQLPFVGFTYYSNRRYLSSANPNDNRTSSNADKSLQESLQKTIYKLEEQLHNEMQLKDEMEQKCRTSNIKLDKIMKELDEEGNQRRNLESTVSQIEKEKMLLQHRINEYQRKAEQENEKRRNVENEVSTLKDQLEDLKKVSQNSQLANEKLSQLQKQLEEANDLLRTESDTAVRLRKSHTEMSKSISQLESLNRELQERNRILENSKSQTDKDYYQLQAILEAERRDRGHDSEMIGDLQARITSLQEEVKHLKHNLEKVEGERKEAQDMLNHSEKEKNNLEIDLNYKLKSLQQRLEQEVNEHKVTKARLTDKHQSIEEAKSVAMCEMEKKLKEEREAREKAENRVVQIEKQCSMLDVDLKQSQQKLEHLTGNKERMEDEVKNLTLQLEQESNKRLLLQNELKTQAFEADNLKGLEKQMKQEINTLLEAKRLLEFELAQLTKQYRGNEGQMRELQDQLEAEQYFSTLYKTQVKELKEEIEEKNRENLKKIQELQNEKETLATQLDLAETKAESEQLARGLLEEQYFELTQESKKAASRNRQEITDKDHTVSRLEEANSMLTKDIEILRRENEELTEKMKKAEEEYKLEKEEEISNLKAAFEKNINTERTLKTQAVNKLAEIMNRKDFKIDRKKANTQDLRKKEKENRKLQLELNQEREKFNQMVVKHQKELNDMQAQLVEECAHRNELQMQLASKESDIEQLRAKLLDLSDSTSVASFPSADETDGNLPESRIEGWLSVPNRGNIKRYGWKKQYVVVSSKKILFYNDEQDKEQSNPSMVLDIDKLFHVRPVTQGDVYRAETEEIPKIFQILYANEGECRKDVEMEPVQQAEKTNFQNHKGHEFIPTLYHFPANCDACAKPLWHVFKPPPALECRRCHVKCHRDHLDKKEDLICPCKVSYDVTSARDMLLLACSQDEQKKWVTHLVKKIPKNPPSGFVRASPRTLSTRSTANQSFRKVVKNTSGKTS
Sequence of Rho kinase 2 (O75116 whole entry): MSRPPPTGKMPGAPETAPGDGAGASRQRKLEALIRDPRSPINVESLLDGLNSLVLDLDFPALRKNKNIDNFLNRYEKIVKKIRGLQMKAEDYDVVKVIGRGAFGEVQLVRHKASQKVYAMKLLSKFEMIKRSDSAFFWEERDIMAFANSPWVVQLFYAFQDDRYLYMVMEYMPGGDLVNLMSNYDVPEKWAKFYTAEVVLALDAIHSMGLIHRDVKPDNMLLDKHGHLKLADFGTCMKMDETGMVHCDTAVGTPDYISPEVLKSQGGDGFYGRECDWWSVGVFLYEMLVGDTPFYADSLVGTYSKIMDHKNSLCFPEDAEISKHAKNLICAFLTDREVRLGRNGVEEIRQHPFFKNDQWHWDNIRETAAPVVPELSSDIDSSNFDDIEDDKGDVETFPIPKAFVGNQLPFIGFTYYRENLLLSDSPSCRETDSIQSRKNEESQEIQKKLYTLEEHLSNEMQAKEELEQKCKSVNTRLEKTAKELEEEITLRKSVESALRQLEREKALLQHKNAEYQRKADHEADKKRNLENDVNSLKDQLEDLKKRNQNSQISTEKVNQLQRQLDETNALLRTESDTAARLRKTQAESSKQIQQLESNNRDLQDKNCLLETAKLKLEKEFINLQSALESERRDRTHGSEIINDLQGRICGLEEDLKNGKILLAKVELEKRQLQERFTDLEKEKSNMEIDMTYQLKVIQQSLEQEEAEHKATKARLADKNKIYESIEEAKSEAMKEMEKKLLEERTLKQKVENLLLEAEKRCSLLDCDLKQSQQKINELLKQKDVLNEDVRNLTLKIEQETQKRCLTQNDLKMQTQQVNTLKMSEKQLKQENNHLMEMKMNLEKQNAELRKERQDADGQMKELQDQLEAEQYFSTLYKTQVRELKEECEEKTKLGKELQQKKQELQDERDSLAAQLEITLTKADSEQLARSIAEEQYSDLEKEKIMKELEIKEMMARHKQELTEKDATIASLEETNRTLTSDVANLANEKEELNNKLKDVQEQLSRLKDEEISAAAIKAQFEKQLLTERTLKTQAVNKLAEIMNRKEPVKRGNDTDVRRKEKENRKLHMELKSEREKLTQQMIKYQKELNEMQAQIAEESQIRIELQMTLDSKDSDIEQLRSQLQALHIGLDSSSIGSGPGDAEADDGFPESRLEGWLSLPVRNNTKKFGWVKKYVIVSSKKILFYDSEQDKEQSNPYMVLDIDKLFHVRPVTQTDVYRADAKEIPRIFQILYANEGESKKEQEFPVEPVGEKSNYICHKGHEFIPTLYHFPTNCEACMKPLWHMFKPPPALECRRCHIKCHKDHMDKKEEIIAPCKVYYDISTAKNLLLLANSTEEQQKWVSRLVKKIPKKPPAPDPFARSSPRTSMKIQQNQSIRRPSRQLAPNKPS

As for `CC1=C(C(=O)Nc2ccc3cnccc3c2)C(c2ccc(C(F)(F)F)c(F)c2)n2nc(C(=O)N(C)CCN3CCOCC3)cc2N1` (stereo not drawn) [Example 83, 7-(3-fluoro-4-(trifluoromethyl)phenyl)-N6-(isoquinolin-6-yl)-N2,5-dimethyl-N2-(2-morpholinoethyl)-4,7-dihydropyrazolo[1,5-a]pyrimidine-2,6-dicarboxamide], the Ki in assay [1] and in assay [2] was < 50 nM in each case.

For the compound `CC1=C(C(=O)Nc2ccc3cnccc3c2)C(c2ccc(C(F)(F)F)c(F)c2)n2nc(CO)cc2N1` (single isomer, unassigned) [Example 65A, 7-(3-fluoro-4-(trifluoromethyl)phenyl)-2-(hydroxymethyl)-N-(isoquinolin-6-yl)-5-methyl-4,7-dihydropyrazolo[1,5-a]pyrimidine-6-carboxamide], the Ki in assay [1] and in assay [2] was < 50 nM each time.

For the compound `CC1=C(C(=O)Nc2ccc3[nH]ncc3c2)C(c2ccc(F)cc2)n2nnnc2N1` (single isomer, unassigned) [Example 23A, 7-(4-fluorophenyl)-N-(1H-indazol-5-yl)-5-methyl-4,7-dihydrotetrazolo[1,5-a]pyrimidine-6-carboxamide], the Ki in assay [1] and in assay [2] was < 50 nM each time.

Take `CC1=C(C(=O)Nc2ccc3[nH]ncc3c2)C(c2ccc(Cl)cc2F)n2nc(CO)cc2N1` (stereo not drawn) [Example 68, 7-(4-chloro-2-fluorophenyl)-2-(hydroxymethyl)-N-(1H-indazol-5-yl)-5-methyl-4,7-dihydropyrazolo[1,5-a]pyrimidine-6-carboxamide]: the Ki in assay [1] and in assay [2] was < 50 nM each time.

With `CC1=C(C(=O)Nc2ccc3cnccc3c2)C(c2ccc(C(F)(F)F)c(F)c2)n2nc(C(=O)NC3CC3)cc2N1` (stereo not drawn) [Example 125, N2-cyclopropyl-7-(3-fluoro-4-(trifluoromethyl)phenyl)-N6-(isoquinolin-6-yl)-5-methyl-4,7-dihydropyrazolo[1,5-a]pyrimidine-2,6-dicarboxamide], the Ki in assay [1] and in assay [2] was < 50 nM in each case.

Turning to `CC1=C(C(=O)Nc2ccc3[nH]ncc3c2)C(C2CCN(C)CC2)n2nc(C(F)(F)F)cc2N1` (stereo not drawn) [Example 33, N-(1H-indazol-5-yl)-5-methyl-7-(1-methylpiperidin-4-yl)-2-(trifluoromethyl)-4,7-dihydropyrazolo[1,5-a]pyrimidine-6-carboxamide], the Ki in assay [1] and in assay [2] was > 500 nM throughout.

Turning to `CC1=C(C(=O)Nc2ccc3cnccc3c2)C(c2ccc(Cl)c(C(F)(F)F)c2)n2nc(CO)cc2N1` (stereo not drawn) [Example 47, 7-(4-chloro-3-(trifluoromethyl)phenyl)-2-(hydroxymethyl)-N-(isoquinolin-6-yl)-5-methyl-4,7-dihydropyrazolo[1,5-a]pyrimidine-6-carboxamide], the Ki in assay [1] and in assay [2] was < 50 nM throughout.

Consider `CC1=C(C(=O)Nc2ccc3cnccc3c2)C(CCc2ccccc2)n2nc(CO)cc2N1` (stereo not drawn) [Example 53, 2-(hydroxymethyl)-N-(isoquinolin-6-yl)-5-methyl-7-phenethyl-4,7-dihydropyrazolo[1,5-a]pyrimidine-6-carboxamide], for which the Ki in assay [1] and in assay [2] was < 50 nM each time.

As for `CC1=C(C(=O)Nc2ccc3cnccc3c2)C(c2ccc(C(F)(F)F)c(F)c2)n2nc(C(=O)NC3CC(F)(F)C3)cc2N1` (stereo not drawn) [Example 128, N2-(3,3-difluorocyclobutyl)-7-(3-fluoro-4-(trifluoromethyl)phenyl)-N6-(isoquinolin-6-yl)-5-methyl-4,7-dihydropyrazolo[1,5-a]pyrimidine-2,6-dicarboxamide], the Ki in assay [1] and in assay [2] was < 50 nM throughout.

`CC1=C(C(=O)Nc2ccc3cnccc3c2)C(c2ccc(C(F)(F)F)c(F)c2F)n2nc(CO)cc2N1` (stereo not drawn) [Example 56, 7-(2,3-difluoro-4-(trifluoromethyl)phenyl)-2-(hydroxymethyl)-N-(isoquinolin-6-yl)-5-methyl-4,7-dihydropyrazolo[1,5-a]pyrimidine-6-carboxamide]: the Ki in assay [1] and in assay [2] was < 50 nM throughout.

For `CCOC(=O)c1cc2n(n1)C(C1CCN(C)CC1)C(C(=O)Nc1ccc3[nH]ncc3c1)=C(C)N2` (stereo not drawn) [Example 12, ethyl 6-((1H-indazol-5-yl)carbamoyl)-5-methyl-7-(1-methylpiperidin-4-yl)-4,7-dihydropyrazolo[1,5-a]pyrimidine-2-carboxylate], the Ki in assay [1] and in assay [2] was > 500 nM throughout.

`CC1=C(C(=O)Nc2ccc3cnccc3c2)C(c2ccc(C(F)(F)F)c(F)c2)n2nc(C(=O)N(C)C3CCN(C)CC3)cc2N1` (stereo not drawn) [Example 88, 7-(3-fluoro-4-(trifluoromethyl)phenyl)-N6-(isoquinolin-6-yl)-N2,5-dimethyl-N2-(1-methylpiperidin-4-yl)-4,7-dihydropyrazolo[1,5-a]pyrimidine-2,6-dicarboxamide]: the Ki in assay [1] and in assay [2] was < 50 nM in each case.

As for `CC1=C(C(=O)Nc2ccc3[nH]ncc3c2)C(c2ccc(C(F)(F)F)cc2)n2nnnc2N1` (single isomer, unassigned) [Example 27B, N-(1H-indazol-5-yl)-5-methyl-7-(4-(trifluoromethyl)phenyl)-4,7-dihydrotetrazolo[1,5-a]pyrimidine-6-carboxamide], the Ki in assay [1] and in assay [2] was 50 to 500 nM throughout.

As for `CC1=C(C(=O)Nc2ccc3cnccc3c2)C(c2ccc3ccsc3c2)n2nc(CO)cc2N1` (stereo not drawn) [Example 46, 7-(benzo[b]thiophen-6-yl)-2-(hydroxymethyl)-N-(isoquinolin-6-yl)-5-methyl-4,7-dihydropyrazolo[1,5-a]pyrimidine-6-carboxamide], the Ki in assay [1] and in assay [2] was < 50 nM throughout.

Take `CC1=C(C(=O)Nc2ccc3cnccc3c2)C(c2ccc(C(F)(F)F)c(F)c2)n2nc(C3CCN(C(=O)CCN4CCCCC4)CC3)cc2N1` (single isomer, unassigned) [135A]: the Ki in assay [1] and in assay [2] was > 500 nM throughout.

As to `CC1=C(C(=O)Nc2ccc3cnccc3c2)C(c2ccc(C(F)(F)F)c(F)c2)n2nc(C(=O)NCCC(=O)N3CCCC3)cc2N1` (stereo not drawn) [Example 127, 7-(3-fluoro-4-(trifluoromethyl)phenyl)-N6-(isoquinolin-6-yl)-5-methyl-N2-(3-oxo-3-(pyrrolidin-1-yl)propyl)-4,7-dihydropyrazolo[1,5-a]pyrimidine-2,6-dicarboxamide], the Ki in assay [1] and in assay [2] was < 50 nM each time.

Take `COC1CCN(Cc2cc3n(n2)C(c2ccc(C(F)(F)F)c(F)c2)C(C(=O)Nc2ccc4cnccc4c2)=C(C)N3)CC1` (stereo not drawn) [Example 99, 7-(3-fluoro-4-(trifluoromethyl)phenyl)-N-(isoquinolin-6-yl)-2-((4-methoxypiperidin-1-yl)methyl)-5-methyl-4,7-dihydropyrazolo[1,5-a]pyrimidine-6-carboxamide]: the Ki in assay [1] and in assay [2] was < 50 nM throughout.

Regarding `CC1=C(C(=O)Nc2ccc3[nH]ncc3c2)C(c2ccc(F)cc2)n2ncc(C(=O)NCCN(C)C)c2N1` (stereo not drawn) [Example 92, N3-(2-(dimethylamino)ethyl)-7-(4-fluorophenyl)-N6-(1H-indazol-5-yl)-5-methyl-4,7-dihydropyrazolo[1,5-a]pyrimidine-3,6-dicarboxamide], the Ki in assay [1] and in assay [2] was > 500 nM throughout.
